The values below come from BindingDB's records for doi:10.1021/jm00355a015 (1983).

For the assay, the target named is arachidonate 5-lipoxygenase (Cavia porcellus). The assay can be described thus: Inhibitory activity against 5-lipoxygenase.

One may read the IC50 as the concentration that inhibits the measured activity by half. A higher IC50 goes with weaker potency. Regarding `CCCCC/C=C\C/C=C\C/C=C\C=C\[C@@H](O)CCCC(=O)O` [(5S,6E,8Z,11Z,14Z)-5-hydroxyicosa-6,8,11,14-tetraenoic acid], the IC50 worked out at 2 µM. In the case of `CCCCC/C=C\C/C=C\CC=CC=CC(=O)CCCC(=O)OC` [5-Oxo-icosa-6,8,11,14-tetraenoic acid methyl ester] it was 20 µM. Turning to `CCCCC/C=C\C\C=C/C=C/C=C/C1CC1CCCCC(=O)O` (stereo not drawn) [5-(2-Tetradeca-1,3,5,8-tetraenyl-cyclopropyl)-pentanoic acid], half-maximal inhibition (IC50) required 20 µM. The compound `CCCCCCCCCCCCCCC1CC1CCCC(=O)O` (stereo not drawn) [4-(2-Tetradecyl-cyclopropyl)-butyric acid] returned an IC50 of 100 µM. For `CCCCC/C=C\C\C=C/C=C/C=C/C1SC1CCCC(=O)OC` (stereo not drawn) [4-(3-Tetradeca-1,3,5,8-tetraenyl-thiiranyl)-butyric acid methyl ester], it took 65 µM to reach half-maximal inhibition (IC50). Turning to `CCCCC/C=C\C\C=C/C=C/C=C/[C@@H]1O[C@H]1CCCC(=O)O` [4-{(2S,3S)-3-[(1E,3E,5Z,8Z)-tetradeca-1,3,5,8-tetraen-1-yl]oxiran-2-yl}butanoic acid], the IC50 is 2 µM.

`CCCCC/C=C\C\C=C/C=C/C=C/C1CC1CCCC(=O)O` (stereo not drawn) [4-(2-Tetradeca-1,3,5,8-tetraenyl-cyclopropyl)-butyric acid] gave an IC50 of 3 µM. Compound `CCCCC/C=C\C/C=C\C/C=C\C=C\C(CO)CCCC(=O)O` (stereo not drawn) [5-Hydroxymethyl-icosa-6,8,11,14-tetraenoic acid] returned a concentration for half-maximal inhibition (IC50) of 100 µM.
